The target of experiment [1] is T1, biotinylated wild-type menin and MLL-AF9 fusion protein (menin/MLL binding) (Homo sapiens, UniProt O00255).
T1 construct: made in house; host or cells: menin: E. coli; MLL-AF9-FLAG: HEK293 cells, used as cleared lysate
T1 sequence (O00255 1-610): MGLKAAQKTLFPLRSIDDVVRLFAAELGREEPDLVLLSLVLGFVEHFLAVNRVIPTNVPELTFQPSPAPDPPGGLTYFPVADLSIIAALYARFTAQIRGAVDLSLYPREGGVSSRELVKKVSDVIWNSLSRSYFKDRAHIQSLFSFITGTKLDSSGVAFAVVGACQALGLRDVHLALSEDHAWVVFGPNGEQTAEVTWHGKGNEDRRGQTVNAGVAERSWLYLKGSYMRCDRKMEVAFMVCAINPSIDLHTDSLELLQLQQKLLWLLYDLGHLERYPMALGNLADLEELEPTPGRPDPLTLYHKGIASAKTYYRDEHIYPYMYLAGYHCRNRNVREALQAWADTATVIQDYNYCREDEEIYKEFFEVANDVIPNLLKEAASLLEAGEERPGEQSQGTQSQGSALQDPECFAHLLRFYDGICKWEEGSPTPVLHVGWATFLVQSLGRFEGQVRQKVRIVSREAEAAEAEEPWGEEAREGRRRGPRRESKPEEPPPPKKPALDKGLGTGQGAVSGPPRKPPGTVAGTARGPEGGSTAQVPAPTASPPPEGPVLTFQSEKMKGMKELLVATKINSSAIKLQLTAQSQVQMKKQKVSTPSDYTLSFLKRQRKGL
Description: Assay 1: menin/MLL binding AlphaLISA assay, wild-type menin. Conditions: Table 30; column head does not say wild-type or mutated menin. The method, boiled down: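 Compound was preincubated 30 min at room temperature with biotinylated menin (5 nM) and MLL-AF9-FLAG lysate from HEK293 cells, pH 7.4 buffer with 5% DMSO and DTT. Bead-based Alpha signal after 60 min with streptavidin donor and anti-FLAG acceptor beads; four-parameter logistic fit gave IC50.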

Experiment [2] relates to human acute monocytic leukemia cell line MV-4-11. Description: Assay 2: cell proliferation assay (ATP quantitation, CellTiter-Glo), MV-4-11. The class given is cell-based. The conditions noted are these: Homo sapiens, MV4-11, 72 h, MV-4-11 cells. The method, boiled down:
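MV-4-11 cells, 1.67×10^4 per well in medium with 10% FBS, were exposed to compound for 72 h at 37° C., 5% CO2; HL-60 cells served as toxicity control. Proliferation read as ATP content by CellTiter-Glo luminescence.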

In experiment [1], `CC(C)N(C(=O)c1cc(F)ccc1Oc1cncnc1N1CC2(CCN(CC3CCOCC3)CC2)C1)C(C)C` [Example 101, 5-fluoro-N,N-diisopropyl-2-((4-(7-((tetrahydro-2H-pyran-4-yl)methyl)-2,7-diazaspiro[3.5]nonan-2-yl)pyrimidin-5-yl)oxy)benzamide] showed a 50% inhibitory concentration (IC50) of less than 100 nM. The molecule also gave an EC50 in experiment [2] of 100 to 1000 nM.

The molecule `CN(C)C(c1cc(F)ccc1Oc1cncnc1N1CCC2(CCN(Cc3ccc4[nH]c(=O)[nH]c4c3)C2)C1)C1CCCC1` (stereo not shown) [Example 8, 5-((7-(5-(2-(cyclopentyl(dimethylamino)methyl)-4-fluorophenoxy)pyrimidin-4-yl)-2,7-diazaspiro[4.4]nonan-2-yl)methyl)-1,3-dihydro-2H-benzo[d]imidazol-2-one] came in with a concentration for half-maximal inhibition (IC50) in experiment [1] of less than 100 nM. Further, the EC50 in experiment [2] is less than 100 nM.

`CC(=O)Nc1ccc(CN2C(=O)C3(CCN(c4ncncc4Oc4ccc(F)cc4C(=O)N(C)C(C)C)C3)N=C2N)cc1` (stereo not shown) [Example 251, 2-((4-(3-(4-acetamidobenzyl)-2-amino-4-oxo-1,3,7-triazaspiro[4.4]non-1-en-7-yl)pyrimidin-5-yl)oxy)-5-fluoro-N-isopropyl-N-methylbenzamide] showed a half-maximal inhibitory concentration (IC50) in experiment [1] of less than 100 nM. Further, the half-maximal effective concentration (EC50) in experiment [2] was not below 1000 nM.

Molecule `CC(C)N(C(=O)c1cc(F)ccc1Oc1cncnc1N1CCC2(CCN(Cc3ccc4[nH]c(=O)[nH]c4c3)C2)C1)C(C)C` (single isomer, unassigned) [Example 1A, 5-fluoro-N,N-diisopropyl-2-((4-(7-((2-oxo-2,3-dihydro-1H-benzo[d]imidazol-5-yl)methyl)-2,7-diazaspiro[4.4]nonan-2-yl)pyrimidin-5-yl)oxy)benzamide] registered an IC50 in experiment [1] of less than 100 nM. The same molecule yielded an EC50 in experiment [2] of less than 100 nM.

As to `CCOC(=O)N(C)c1cc(F)ccc1Oc1cncnc1N1CCC2(CCN(Cc3ccc4[nH]c(=O)[nH]c4c3)C2)C1` (stereo not shown) [Example 164, ethyl (5-fluoro-2-((4-(7-((2-oxo-2,3-dihydro-1H-benzo[d]imidazol-5-yl)methyl)-2,7-diazaspiro[4.4]nonan-2-yl)pyrimidin-5-yl)oxy)phenyl) (methyl)carbamate], in experiment [1], the 50% inhibitory concentration (IC50) is less than 100 nM. The half-maximal effective concentration (EC50) in experiment [2] lay within 100 to 1000 nM.

Regarding `CC(C)c1ncncc1-c1cc(F)ccc1Oc1cncnc1N1CC2(CC(NC3CCC(C)(C#N)CC3)C2)C1` (single isomer, unassigned) [Example 148A, 4-((2-(5-(4-fluoro-2-(4-isopropylpyrimidin-5-yl)phenoxy)pyrimidin-4-yl)-2-azaspiro[3.3]heptan-6-yl)amino)-1-methylcyclohexane carbonitrile], the half-maximal inhibitory concentration (IC50) in experiment [1] was less than 100 nM. The same molecule gave a 50% effective concentration (EC50) in experiment [2] of 100 to 1000 nM.

For the molecule `CCN(C(=O)C(C)C)c1cc(F)ccc1Oc1cncnc1N1CC2(CN(C(=O)Cc3ccc(S(C)(=O)=O)cc3)C2)C1` [Example 119, N-ethyl-N-(5-fluoro-2-((4-(6-(2-(4-(methylsulfonyl)phenyl)acetyl)-2,6-diazaspiro[3.3]heptan-2-yl)pyrimidin-5-yl)oxy)phenyl)isobutyramide], the half-inhibitory concentration (IC50) in experiment [1] was less than 100 nM. The EC50 in experiment [2] was 100 to 1000 nM.

Turning to `Cn1c(-c2cc(F)ccc2Oc2cncnc2N2CCC3(CCN(Cc4ccc5c(c4)[nH]c(=O)n5CCO)C3)C2)c(C2CC2)ccc1=O` (single isomer, unassigned) [Example 81A, 5-((7-(5-(2-(3-cyclopropyl-1-methyl-6-oxo-1,6-dihydropyridin-2-yl)-4-fluorophenoxy)pyrimidin-4-yl)-2,7-diazaspiro[4.4]nonan-2-yl)methyl)-1-(2-hydroxyethyl)-1H-benzo[d]imidazol-2(3H)-one], the half-inhibitory concentration (IC50) in experiment [1] was less than 100 nM. In experiment [2], this molecule displayed a concentration for a half-maximal effect (EC50) of 100 to 1000 nM.

`CC(C)N(C)C(=O)c1cc(F)ccc1Oc1cncnc1N1CCC2(CCN(Cc3ccc4oc(=O)[nH]c4c3)C2)C1` (stereo not shown) [Example 174, 5-fluoro-N-isopropyl-N-methyl-2-((4-(7-((2-oxo-2,3-dihydrobenzo[d]oxazol-5-yl)methyl)-2,7-diazaspiro[4.4]nonan-2-yl)pyrimidin-5-yl)oxy)benzamide]: in experiment [1], the IC50 was less than 100 nM. In experiment [2], the concentration giving a half-maximal response (EC50) was less than 100 nM.

In experiment [1], `CC(O)c1ccccc1-c1cc(F)ccc1Oc1cncnc1N1CCC2(CCN(Cc3ccc4[nH]c(=O)[nH]c4c3)C2)C1` (single isomer, unassigned) [Example 60A, 5-((7-(5-((5-fluoro-2′-(1-hydroxyethyl)-[1,1′-biphenyl]-2-yl)oxy)pyrimidin-4-yl)-2,7-diazaspiro[4.4]nonan-2-yl)methyl)-1H-benzo[d]imidazol-2(3H)-one] yielded a half-maximal inhibitory concentration (IC50) of less than 100 nM. The molecule also came in with an EC50 in experiment [2] of less than 100 nM.

In the case of `CC(C)C(=O)N(C)c1cc(F)ccc1Oc1cncnc1N1CC2(CN(CC[C@H]3CC[C@H](NC(=O)OC(C)(C)C)CC3)C2)C1` [Example 138, tert-butyl ((1r,4r)-4-(2-(6-(5-(4-fluoro-2-(N-methyl-isobutyramido)phenoxy)pyrimidin-4-yl)-2,6-diazaspiro [3.3]heptan-2-yl)ethyl)cyclohexyl)carbamate], in experiment [1], the IC50 is less than 100 nM. Moreover, the EC50 in experiment [2] is less than 100 nM.

Turning to `N#Cc1ccc(-c2cc(F)ccc2Oc2cncnc2N2CCC3(CCN(Cc4ccc5[nH]c(=O)[nH]c5c4)C3)C2)c(C2CC2)c1` (racemic) [Example 42, 2-cyclopropyl-5′-fluoro-2′-((4-(7-((2-oxo-2,3-dihydro-1H-benzo[d]imidazol-5-yl)methyl)-2,7-diazaspiro[4.4]nonan-2-yl)pyrimidin-5-yl)oxy)-[1,1′-biphenyl]-4-carbonitrile], the half-maximal inhibitory concentration (IC50) in experiment [1] was less than 100 nM. This molecule gave an EC50 in experiment [2] of less than 100 nM.

`CCN(C(=O)C(C)C)c1cc(F)ccc1Oc1cncnc1N1CC2(CCN(CC3CCOCC3)CC2)C1` [Example 110, N-ethyl-N-(5-fluoro-2-((4-(7-((tetrahydro-2H-pyran-4-yl)methyl)-2,7-diazaspiro[3.5]nonan-2-yl)pyrimidin-5-yl)oxy)phenyl)iso-butyramide] yielded a 50% inhibitory concentration (IC50) in experiment [1] of less than 100 nM. The EC50 in experiment [2] fell in the range of 100 to 1000 nM.

Consider `CC(C)N(C)S(=O)(=O)c1cc(F)ccc1Oc1cncnc1N1CCC2(CCN(Cc3ccc4[nH]c(=O)[nH]c4c3)C2)C1` (stereo not shown) [Example 222, 5-fluoro-N-isopropyl-N-methyl-2-((4-(7-((2-oxo-2,3-dihydro-1H-benzo[d]imidazol-5-yl)methyl)-2,7-diazaspiro[4.4]nonan-2-yl)pyrimidin-5-yl)oxy)benzenesulfon-amide], for which, in experiment [1], the IC50 was less than 100 nM. Further, the concentration giving a half-maximal response (EC50) in experiment [2] is not below 1000 nM.

Regarding `Cn1c(=O)[nH]c2ccc(CN3CCC4(CCC(c5ncncc5Oc5ccc(F)cc5Cl)C4)C3)cc21` (stereo not shown) [Example 27, 6-((7-(5-(2-chloro-4-fluorophenoxy)pyrimidin-4-yl)-2-azaspiro[4.4]nonan-2-yl)methyl)-1-methyl-1H-benzo[d]imidazol-2(3H)-one], the IC50 in experiment [1] is less than 100 nM. For the same molecule, the EC50 in experiment [2] was not below 1000 nM.

In turn, `Fc1ccc(Oc2cncnc2N2CC3(CN(CC4CCOCC4)C3)C2)c(-c2cccnc2C2CC2)c1` [Example 177, 2-(5-(2-(2-cyclopropylpyridin-3-yl)-4-fluorophenoxy)pyrimidin-4-yl)-6-((tetrahydro-2H-pyran-4-yl)methyl)-2,6-diazaspiro[3.3] heptane] gave a half-maximal inhibitory concentration (IC50) in experiment [1] of less than 100 nM. The same molecule came in with an EC50 in experiment [2] of less than 100 nM.

`CC(C)c1ncncc1-c1cc(F)ccc1Oc1cncnc1N1CC2(CCN(C(=O)Cc3ccc(C#N)cc3)C2)C1` [Example 149, 4-(2-(2-(5-(4-fluoro-2-(4-isopropylpyrimidin-5-yl)phenoxy)pyrimidin-4-yl)-2,6-diazaspiro[3.4]octan-6-yl)-2-oxoethyl)benzonitrile] showed an IC50 in experiment [1] of less than 100 nM. Further, the half-maximal effective concentration (EC50) in experiment [2] is less than 100 nM.

`O=C(c1cc(F)ccc1Oc1cncnc1N1CCC2(CCN(Cc3ccc4[nH]c(=O)[nH]c4c3)C2)C1)N1CCOCC1` (stereo not shown) [Example 155, 5-((7-(5-(4-fluoro-2-(morpholine-4-carbonyl)phenoxy)pyrimidin-4-yl)-2,7-diaza-spiro[4.4]nonan-2-yl)methyl)-1,3-dihydro-2H-benzo[d]imidazol-2-one]: the half-inhibitory concentration (IC50) in experiment [1] was less than 100 nM. The half-maximal effective concentration (EC50) in experiment [2] fell in the range of 100 to 1000 nM.

In turn, `CCN(C(=O)C(C)C)c1cc(F)ccc1Oc1cncnc1N1CCC2(CCN(Cc3ccc4[nH]c(=O)[nH]c4c3)C2)C1` (stereo not shown) [Example 186, N-ethyl-N-(5-fluoro-2-((4-(7-((2-oxo-2,3-dihydro-1H-benzo[d]imidazol-5-yl)methyl)-2,7-diazaspiro[4.4]nonan-2-yl)pyrimidin-5-yl)oxy)phenyl) isobutyramide] yielded an IC50 in experiment [1] of less than 100 nM. The molecule further came in with an EC50 in experiment [2] of less than 100 nM.

As for `O=c1[nH]c2ccc(CN3CCC4(CCN(c5ncncc5Oc5ccc(F)cc5OCC5CC5)C4)C3)cc2[nH]1` (stereo not shown) [Example 54, 5-((7-(5-(2-(cyclopropylmethoxy)-4-fluorophenoxy)pyrimidin-4-yl)-2,7-diazaspiro[4.4]nonan-2-yl)methyl)-1,3-dihydro-2H-benzo[d]imidazol-2-one], the IC50 in experiment [1] was less than 100 nM. Moreover, the EC50 in experiment [2] lay within 100 to 1000 nM.

Source of the values: patent US12312359B2 (Vitae Pharmaceuticals, LLC, priority 2016, dated 2025).
